Experiment [1] addresses T1, Melanocortin receptor 4 (Homo sapiens, UniProt P32245). The experiment is described as follows: Binding affinity against human melanocortin 4 receptor (hMC4R) using [125I]- ([Nle4]alpha-MSH) as radioligand.
Experiment [2] has as its target T1, Melanocortin receptor 4. The experiment is described as follows: Binding affinity against human melanocortin 4 receptor (hMC4R) using [125I]- agouti related protein (AGRP) as radioligand.
For experiment [3], the target named is T1, Melanocortin receptor 4. The experiment is described as follows: Binding affinity against human melanocortin 4 receptor (hMC4R) using [125I]- ([Nle4]alpha-MSH) as radioligand; NA: Not active.
Experiment [4] addresses T1, Melanocortin receptor 4. The experiment is described as follows: Binding affinity against human melanocortin 4 receptor (hMC4R) using [125I]- agouti related protein (AGRP) as radioligand; NA: Not active.
Experiment [5] deals with T1, Melanocortin receptor 4. The experiment is described as follows: Inhibitory activity against hMC4R (human melanocortin receptor) using [125I]-[Nle4] alpha-MSH as radioligand.
Experiment [6] concerns the target T1, Melanocortin receptor 4. The experiment is described as follows: Inhibitory activity against hMC4R (human melanocortin receptor) using I-AGRP as radioligand.
The target of experiment [7] is T1, Melanocortin receptor 4. The experiment is described as follows: Binding affinity against human melanocortin 4 receptor (hMC4R) using [125I]- NDP-MSH as radioligand.
The target in experiment [8] is T2, Melanocyte-stimulating hormone receptor (Homo sapiens, UniProt Q01726). The experiment is described as follows: Inhibitory activity against hMC1R (human melanocortin receptor) using [125I]-[Nle4] alpha-MSH as radioligand.
Experiment [9] addresses T2, Melanocyte-stimulating hormone receptor. The experiment is described as follows: Inhibitory activity against hMC1R (human melanocortin receptor) using [125I]- ASIP Y radioligand.
In experiment [10] the target is T3, Melanocortin receptor 3 (Homo sapiens, UniProt P41968). The experiment is described as follows: Inhibitory activity against hMC3R (human melanocortin receptor) using [125I]-[Nle4] alpha-MSH as radioligand.
Experiment [11] has as its target T3, Melanocortin receptor 3. The experiment is described as follows: Inhibitory activity against hMC3R (human melanocortin receptor) using I-AGRP as radioligand.

The values that follow come from ChEMBL document CHEMBL1136698, “Peptoid mimics of agouti related protein” (Bioorg Med Chem Lett, 2003).

The structures appear in SMILES notation.

T1 sequence (P32245 whole entry): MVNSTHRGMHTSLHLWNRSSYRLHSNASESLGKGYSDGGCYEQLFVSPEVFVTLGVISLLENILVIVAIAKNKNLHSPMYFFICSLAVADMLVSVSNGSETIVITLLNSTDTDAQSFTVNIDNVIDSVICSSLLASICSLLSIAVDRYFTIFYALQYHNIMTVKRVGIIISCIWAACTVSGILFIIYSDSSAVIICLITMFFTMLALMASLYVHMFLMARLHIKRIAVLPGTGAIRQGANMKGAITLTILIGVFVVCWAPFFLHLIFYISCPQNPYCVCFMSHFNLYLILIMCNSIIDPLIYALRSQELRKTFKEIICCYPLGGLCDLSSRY
T2 sequence (Q01726 whole entry): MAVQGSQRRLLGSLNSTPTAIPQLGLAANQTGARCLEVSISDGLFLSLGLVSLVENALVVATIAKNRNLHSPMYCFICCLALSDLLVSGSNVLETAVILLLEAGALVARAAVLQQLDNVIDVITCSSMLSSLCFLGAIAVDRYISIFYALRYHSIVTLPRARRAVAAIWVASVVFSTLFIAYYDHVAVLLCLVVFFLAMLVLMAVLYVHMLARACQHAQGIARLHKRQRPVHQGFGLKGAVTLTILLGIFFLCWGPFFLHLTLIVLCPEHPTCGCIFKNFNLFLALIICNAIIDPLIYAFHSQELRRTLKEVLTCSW
T3 sequence (P41968 whole entry): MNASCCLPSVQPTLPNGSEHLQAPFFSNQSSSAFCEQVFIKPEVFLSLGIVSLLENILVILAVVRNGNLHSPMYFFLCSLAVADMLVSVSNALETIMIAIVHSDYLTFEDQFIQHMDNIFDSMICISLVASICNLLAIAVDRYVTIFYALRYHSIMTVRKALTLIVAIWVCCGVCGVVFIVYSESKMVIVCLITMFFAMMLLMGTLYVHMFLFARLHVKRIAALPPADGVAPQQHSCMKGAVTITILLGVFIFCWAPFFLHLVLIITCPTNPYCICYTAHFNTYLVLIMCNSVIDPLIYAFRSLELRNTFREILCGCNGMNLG

As a reminder, the IC50 is the point on the concentration scale where inhibition reaches its midpoint. Regarding `C[C@H](c1ccccc1)N(CC(N)=O)C(=O)CN(Cc1ccccc1)C(=O)CNCCCN=C(N)N`, the IC50 at Melanocortin receptor 4 [1] and on Melanocortin receptor 4 [2] was over 100 µM each time.

In the case of `C[C@@H](c1ccccc1)N(CC(N)=O)C(=O)CN(Cc1ccccc1)C(=O)CNCCCN=C(N)N`, the IC50 entry on Melanocortin receptor 4 [3] and on Melanocortin receptor 4 [4] was “Not Active” throughout.

On to `CC(C)(C(N)=O)N(Cc1ccccc1)C(=O)CN(CCc1ccccc1)C(=O)CNCCCN=C(N)N`, for which the IC50 on Melanocortin receptor 4 [1] was over 100 µM.

Consider `C[C@H](c1ccccc1)N(CC(N)=O)C(=O)CN(C(=O)CNCCCNC(=N)N)C(c1ccccc1)c1ccccc1`, for which the IC50 worked out at 3.1 µM on Melanocortin receptor 4 [1]; 3.1 µM at Melanocortin receptor 4 [5]; 1900 nM on Melanocortin receptor 4 [6]; 2100 nM on Melanocortin receptor 4 [7]; 1.9 µM on Melanocortin receptor 4 [2]; 9.1 µM in experiment [8]. Moreover, the values for the IC50 (in experiment [9]; on Melanocortin receptor 3 [10]; at Melanocortin receptor 3 [11]) were 25 µM, 48 µM and over 50 µM, respectively.

On to `NC(=O)CN(Cc1ccccc1)C(=O)CN(Cc1ccccc1)C(=O)CNCCCN=C(N)N`, for which the half-maximal inhibitory concentration (IC50) on Melanocortin receptor 4 [1] and at Melanocortin receptor 4 [2] was over 100 µM in each case.
